Here are results for 17 compounds from publication PMC6855212, “Antibacterial activity of synthetic 1,3‐bis(aryloxy)propan‐2‐amines against Gram‐positive bacteria” (MicrobiologyOpen, 2019).

The test system of data set [1] is Enterococcus faecalis ATCC 29213. As to the kind of experiment: MIC, broth microdilution. Format: cell-based. The settings on record: Enterococcus faecalis, ATCC29213; 24 hr, 35°C; — = no activity up to 10 μg/ml; read-out: MIC Enterococcus faecalis ATCC 29213. On the procedure: (§1) The antibacterial activity of the compounds was evaluated using the broth microdilution method in 96‐well microplates according to the Clinical and Laboratory Standards Institute protocol (CLSI, 2017). First, synthetic compounds were diluted in Mueller Hinton broth (MHB; Oxoid, Thermo Scientific, UK) to concentrations ranging from 20 to 2.5 μg/ml. The same volume of a bacterial suspension containing 10^5 CFU/ml was added to each of the previous solutions, resulting in final compound concentrations from 10 to 1.25 μg/ml. […] All conditions were tested in triplicate and the results shown are representative of three independent assays.
On the technique in general: Dilution methods test growth across graded concentrations, often in twofold steps.

Data set [2] has as its system Staphylococcus aureus ATCC 29212. The data set is described as follows: MIC, broth microdilution. Format: cell-based. Particulars: Staphylococcus aureus, ATCC29212; 24 hr, 35°C; read-out: MIC Staphylococcus aureus ATCC 29212. On the procedure: as §1
Data set [3] concerns Streptococcus pyogenes ATCC 19615. As to the kind of experiment: MIC, broth microdilution. The format is cell-based. The settings on record: Streptococcus pyogenes, ATCC19615; 24 hr, 35°C; read-out: MIC Streptococcus pyogenes ATCC 19615. On the procedure: as §1
Another data set has as its system S. aureus. Set-up: method as in CLSI, 2017. Particulars: antimicrobials in clinical use; ref CLSI, 2017; cited from earlier work.
A further data set deals with E. faecalis. Also on record: method as in CLSI, 2017. The settings on record: antimicrobials in clinical use; ref CLSI, 2017; cited from earlier work.
A further data set has as its system MRSA. Also on record: method as in Baltch, Ritz, Bopp, Michelsen, & Smith, 2007. The settings on record: antimicrobials used in the clinic; ref Baltch, Ritz, Bopp, Michelsen, & Smith, 2007; cited from earlier work.

Values after ≈ are worked out from the molar mass of the structure shown.

What is called melting point is the temperature, or range, at which the solid turns liquid. `OC(COc1ccc(Cl)c(Cl)c1)COc1ccc(Cl)c(Cl)c1` [CPD29, 1,3‐Bis(3,4‐dichlorophenoxy)propan‐2‐ol] showed a melting point of 103.4 to 105.7 °C.

As for `CS(=O)(=O)OC(COc1ccc(Cl)c(Cl)c1)COc1ccc(Cl)c(Cl)c1` [CPD30, 1,3‐Bis(3,4‐dichlorophenoxy)propan‐2‐yl methanesulfonate], the melting point lay within 83.7 to 84.4 °C.

As to `[N-]=[N+]=NC(COc1ccc(Cl)c(Cl)c1)COc1ccc(Cl)c(Cl)c1` [CPD31, 1,3‐Bis(3,4‐dichlorophenoxy)propan‐2‐yl azide], the melting point is 95.6 to 96.3 °C.

On to `Clc1ccc(OCC(COc2ccc(Cl)cc2)N2CCOCC2)cc1` [CPD34, 4‐(1,3‐Bis(4‐chlorophenoxy)propan‐2‐yl)morpholine], for which the melting point lay in the range of 62.6 to 64.8 °C.

Consider `Cc1ccc(S(=O)(=O)OC(COc2ccc(Cl)cc2)COc2ccc(Cl)cc2)cc1` [CPD39, 1,3‐bis(4‐chlorophenoxy)propan‐2‐yl 4‐methylbenzenesulfonate], for which the melting point fell in the range of 145.3 to 147.2 °C.

The term MIC denotes the smallest concentration in the dilution series that meets the test's criterion for growth inhibition. Consider `CC1(C)S[C@@H]2[C@H](NC(=O)Cc3ccccc3)C(=O)N2[C@H]1C(=O)O` [Penicillin G, reference compound], for which the results for the MIC in data set [1], in data set [2] and in data set [3] were 5.98 µM (≈ 2 µg/mL), 0.06 µM (≈ 0.0201 µg/mL) and 0.24 µM (≈ 0.0803 µg/mL), respectively.

Take `NCC[C@H](O)C(=O)N[C@@H]1C[C@H](N)[C@@H](O[C@H]2O[C@H](CN)[C@@H](O)[C@H](O)[C@H]2O)[C@H](O)[C@H]1O[C@H]1O[C@H](CO)[C@@H](O)[C@H](N)[C@H]1O` [amikacin]: in the data set on S. aureus, the “MIC S. aureus” value was 1 to 4 µg/mL. Also, the “MIC E. faecalis” value in the data set on E. faecalis is 64 to 256 µg/mL.

As to `CC1(C)S[C@@H]2[C@H](NC(=O)C(C(=O)O)c3ccccc3)C(=O)N2[C@H]1C(=O)O` (stereo partly shown) [carbenicillin], the “MIC S. aureus” value with S. aureus was 2 to 8 µg/mL. In the data set on E. faecalis, the “MIC E. faecalis” value is 16 to 64 µg/mL.

`CC(C)(O/N=C(\C(=O)N[C@@H]1C(=O)N2C(C(=O)[O-])=C(C[n+]3ccccc3)CS[C@H]12)c1csc(N)n1)C(=O)O` [ceftazidime]: the “MIC S. aureus” value in the data set with S. aureus is 4 to 16 µg/mL.

As for `O=C(N[C@H](CO)[C@H](O)c1ccc([N+](=O)[O-])cc1)C(Cl)Cl` [chloramphenicol], the “MIC S. aureus” value in the data set on S. aureus is 2 to 16 µg/mL. The “MIC E. faecalis” value in the data set on E. faecalis is 4 to 16 µg/mL.

For `CCCCCCCCCC(=O)N[C@@H](Cc1c[nH]c2ccccc12)C(=O)N[C@H](CC(N)=O)C(=O)N[C@@H](CC(=O)O)C(=O)N[C@@H]1C(=O)NCC(=O)N[C@@H](CCCN)C(=O)N[C@@H](CC(=O)O)C(=O)N[C@H](C)C(=O)N[C@@H](CC(=O)O)C(=O)NCC(=O)N[C@H](CO)C(=O)N[C@@H]([C@H](C)CC(=O)O)C(=O)N[C@@H](CC(=O)c2ccccc2N)C(=O)O[C@@H]1C` [daptomycin], in the data set on MRSA, the “MIC MRSA” value is 0.5 µg/mL (≈ 0.309 µM).

Regarding `CNC(C)C1CCC(N)C(OC2C(N)CC(N)C(OC3OCC(C)(O)C(NC)C3O)C2O)O1` (stereo not shown) [gentamicin], the “MIC MRSA” value in the data set with MRSA is 128 µg/mL (≈ 268 µM).

Regarding `NC[C@H]1O[C@H](O[C@H]2[C@H](O)[C@@H](O[C@H]3O[C@H](CO)[C@@H](O)[C@H](N)[C@H]3O)[C@H](N)C[C@@H]2N)[C@H](O)[C@@H](O)[C@@H]1O` [kanamycin], the “MIC S. aureus” value with S. aureus was 1 to 4 µg/mL. Also, in the data set with E. faecalis, the “MIC E. faecalis” value is 16 to 64 µg/mL.

`CC(=O)NC[C@H]1CN(c2ccc(N3CCOCC3)c(F)c2)C(=O)O1` [linezolid]: the “MIC S. aureus” value in the data set with S. aureus was 1 to 4 µg/mL. In the data set on E. faecalis, the “MIC E. faecalis” value is 1 to 4 µg/mL.

Turning to `COc1cccc(OC)c1C(=O)N[C@@H]1C(=O)N2[C@@H]1SC(C)(C)[C@@H]2C(=O)O` [methicillin], the “MIC E. faecalis” value in the data set with E. faecalis is greater than 16 µg/mL.

As to `Cc1onc(-c2ccccc2)c1C(=O)N[C@@H]1C(=O)N2[C@@H]1SC(C)(C)[C@@H]2C(=O)O` [oxacillin], the “MIC MRSA” value with MRSA is 16 µg/mL (≈ 39.9 µM).

Turning to `CCN1CCN(C(=O)N[C@@H](C(=O)N[C@@H]2C(=O)N3[C@@H]2SC(C)(C)[C@@H]3C(=O)O)c2ccccc2)C(=O)C1=O` [piperacillin], the “MIC S. aureus” value in the data set with S. aureus is 1 to 4 µg/mL. Moreover, the “MIC E. faecalis” value in the data set with E. faecalis was 1 to 4 µg/mL.
